Data as given in patent US11008572B2, “Methods and compositions for modulating splicing” (SKYHAWK THERAPEUTICS, INC., priority 2017, dated 2021).
Like-named read-outs stand apart in the source and are kept apart here.

Key:
[1] = test system: FOXM1^A2 mRNA and FOXM1^BC mRNA; assay: Splicing assay (FOXM1), qPCR of isoform mRNAs; format: cell-based
Outline: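 Cells (20,000/well) treated at plating with compound, 8-point 4-fold series from 10 μM, 0.2% DMSO, 24 h at 37° C. Isoform mRNAs quantified by RT-qPCR against plasmid standards, normalized to PPIA and DMSO control; isoform ratio computed per concentration.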

A-673 cells = assay: Cell viability, crystal violet staining; format: cell-based; details: Homo sapiens
Outline: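 Readout is absorbance at 570 nm of crystal violet, taken up in 0.1 M sodium citrate in 50% ethanol after staining with 0.5% dye in 25% methanol. Plates held 5×10^3 cells per well, and compounds were added one day after seeding for 72 hours. Data are relative to vehicle, mean±SE.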

[2] = FoxM1 BC mRNA decrease (exon included), read-out: Splice IC50 (nM) FoxM1 BC mRNA decrease (exon included)
[3] = read-out: Splice EC50 (nM) FoxM1 A mRNA increase (exon excluded)
[4] = A673, cell viability, read-out: A-673 IC50 (nM) Cell viability
[5] = 24 h, FoxM1 BC mRNA decrease (exon included), 0.1-1000 nM, 24 hours, read-out: Splice IC50 (nM), FoxM1 BC mRNA decrease (exon included)
[6] = FoxM1 A mRNA increase (exon excluded), 0.1-1000 nM, 24 hours, read-out: Splice EC50 (nM), FoxM1 A mRNA increase (exon excluded)
[7] = A673, cell viability, read-out: A-673 IC50 (nM), Cell viability

SMILES	IC50 [1, 2] [nM]	EC50 [1, 3] [nM]	IC50 (A-673 cells; [4]) [nM]	IC50 [1, 5] [nM]	EC50 [1, 6] [nM]	IC50 (A-673 cells; [7]) [nM]	further results
CN(c1ccc(-c2cc3oc(=O)n(C)c3cc2O)nn1)[C@@H]1C[C@H]2CC[C@@H](C1)N2 [compound 164, 6-(6-(((1R,3s,5S)-8-azabicyclo[3.2.1]octan-3-yl)(methyl)amino)pyridazin-3-yl)-5-hydroxy-3-methylbenzo[d]oxazol-2(3H)-one]	10 to 100	10 to 100	251 to 500				
CN(c1ccc(-c2ccc(-c3cnn(C)c(=O)c3)cc2O)nn1)[C@H]1C[C@]2(C)CC[C@](C)(C1)N2 [compound 170, 5-(4-(6-(((1R,3s,5S)-1,5-dimethyl-8-azabicyclo[3.2.1]octan-3-yl)(methyl)amino)pyridazin-3-yl)-3-hydroxyphenyl)-2-methylpyridazin-3(2H)-one]	< 10	< 10	< 10				
CN(c1ccc(-c2ccc(-c3ccn(C)c(=O)n3)cc2O)nn1)[C@H]1C[C@]2(C)CC[C@](C)(C1)N2 [compound 180, 4-(4-(6-(((1R,3s,5S)-1,5-dimethyl-8-azabicyclo[3.2.1]octan-3-yl)(methyl)amino)pyridazin-3-yl)-3-hydroxyphenyl)-1-methylpyrimidin-2(1H)-one]	10 to 100	10 to 100	101 to 250				
Cc1cc(-c2ccc(N(C)[C@H]3C[C@]4(C)CC[C@](C)(C3)N4)nn2)c(O)cc1-c1cn[nH]c1 [compound 182, 2-(6-(((1R,3s,5S)-1,5-dimethyl-8-azabicyclo[3.2.1]octan-3-yl)(methyl)amino)pyridazin-3-yl)-4-methyl-5-(1H-pyrazol-4-yl)phenol]	< 10	< 10	10 to 100				
CN(c1ccc(-c2ccc(-c3cnn(C(F)(F)F)c3)cc2O)nn1)[C@H]1C[C@]2(C)CC[C@](C)(C1)N2 [compound 186, 2-(6-(((1R,3s,5S)-1,5-dimethyl-8-azabicyclo[3.2.1]octan-3-yl)(methyl)amino)pyridazin-3-yl)-5-(1-(trifluoromethyl)-1H-pyrazol-4-yl)phenol]	101 to 250	10 to 100	> 1000				
CN(c1ccc(-c2ccc(-c3ccn(CF)c(=O)c3)cc2O)nn1)[C@H]1C[C@]2(C)CC[C@](C)(C1)N2 [compound 187, 4-(4-(6-(((1R,3s,5S)-1,5-dimethyl-8-azabicyclo[3.2.1]octan-3-yl)(methyl)amino)pyridazin-3-yl)-3-hydroxyphenyl)-1-(fluoromethyl)pyridin-2(1H)-one]	< 10	< 10	10 to 100				
CNC(=O)c1cc2cc(O)c(-c3ccc(N(C)[C@H]4C[C@]5(C)CC[C@](C)(C4)N5)nn3)cc2o1 [compound 188, 6-(6-(((1R,3s,5S)-1,5-dimethyl-8-azabicyclo[3.2.1]octan-3-yl)(methyl)amino)pyridazin-3-yl)-5-hydroxy-N-methylbenzofuran-2-carboxamide]	10 to 100	< 10	10 to 100				
COc1cc(-c2ccc(-c3ccc(N(C)[C@H]4C[C@]5(C)CC[C@](C)(C4)N5)nn3)c(O)c2)cnn1 [compound 191, 2-(6-(((1R,3s,5S)-1,5-dimethyl-8-azabicyclo[3.2.1]octan-3-yl)(methyl)amino)pyridazin-3-yl)-5-(6-methoxypyridazin-4-yl)phenol]			< 10				IC50 ([1]; Homo sapiens, A673, 24 h, A-673 cells, 24 hours, table does not say EC50 or IC50, read-out: FOXM1): < 1 nM; IC50 ([1]; Homo sapiens, A-375, 24 h, A-375 cells, 24 hours, table does not say EC50 or IC50, read-out: FOXM1): 1 to 10 nM; IC50 ([1]; Homo sapiens, K562, 24 h, K-562 cells, 24 hours, table does not say EC50 or IC50, read-out: FOXM1): 1 to 10 nM; IC50 ([1]; Homo sapiens, MDA-MB-468, 24 h, MDA-MB-468 cells, 24 hours, table does not say EC50 or IC50, read-out: FOXM1): 1 to 10 nM; IC50 ([1]; Homo sapiens, NCI-H358, 24 h, NCI-H358 cells, 24 hours, table does not say EC50 or IC50, read-out: FOXM1): 1 to 10 nM; IC50 ([1]; Homo sapiens, PANC-1, 24 h, PANC-1 cells, 24 hours, table does not say EC50 or IC50, read-out: FOXM1): 101 to 200 nM; IC50 ([1]; Homo sapiens, PC-3, 24 h, PC-3 cells, 24 hours, table does not say EC50 or IC50, read-out: FOXM1): 11 to 100 nM; IC50 ([1]; Homo sapiens, U-87 MG, 24 h, U-87MG cells, 24 hours, table does not say EC50 or IC50, read-out: FOXM1): 11 to 100 nM; IC50 (A-673 cells; A673, read-out: A-673 cell viability (IC50)): < 1 nM
CNC(=O)c1cc2cc(-c3ccc(N(C)[C@H]4C[C@]5(C)CC[C@](C)(C4)N5)nn3)c(O)cc2o1 [compound 192, 5-(6-(((1R,3s,5S)-1,5-dimethyl-8-azabicyclo[3.2.1]octan-3-yl)(methyl)amino)pyridazin-3-yl)-6-hydroxy-N-methylbenzofuran-2-carboxamide]	< 10	< 10	10 to 100				
Cc1nnc(-c2ccc(-c3ccc(N(C)[C@@H]4C[C@H]5CC[C@@H](C4)N5)nn3)c(O)c2)o1 [compound 219, 2-(6-(((1R,3s,5S)-8-azabicyclo[3.2.1]octan-3-yl)(methyl)amino)pyridazin-3-yl)-5-(5-methyl-1,3,4-oxadiazol-2-yl)phenol]				10 to 100	10 to 100	> 1000	
CN(c1ccc(-c2ccc(-n3cccn3)cc2O)nn1)[C@@H]1C[C@H]2CC[C@@H](C1)N2 [compound 220, 2-(6-(((1R,3s,5S)-8-azabicyclo[3.2.1]octan-3-yl)(methyl)amino)pyridazin-3-yl)-5-(1H-pyrazol-1-yl)phenol]				10 to 100	< 10	10 to 100	
Cc1cnn(-c2ccc(-c3ccc(N(C)[C@@H]4C[C@H]5CC[C@@H](C4)N5)nn3)c(O)c2)c1 [compound 221, 2-(6-(((1R,3s,5S)-8-azabicyclo[3.2.1]octan-3-yl)(methyl)amino)pyridazin-3-yl)-5-(4-methyl-1H-pyrazol-1-yl)phenol]				10 to 100	10 to 100	101 to 250	
Cc1ccn(-c2ccc(-c3ccc(N(C)[C@@H]4C[C@H]5CC[C@@H](C4)N5)nn3)c(O)c2)n1 [compound 222, 2-(6-(((1R,3s,5S)-8-azabicyclo[3.2.1]octan-3-yl)(methyl)amino)pyridazin-3-yl)-5-(3-methyl-1H-pyrazol-1-yl)phenol]				10 to 100	< 10	10 to 100	
CN(c1ccc(-c2ccc(-n3ccnn3)cc2O)nn1)[C@@H]1C[C@H]2CC[C@@H](C1)N2 [compound 224, 2-(6-(((1R,3s,5S)-8-azabicyclo[3.2.1]octan-3-yl)(methyl)amino)pyridazin-3-yl)-5-(1H-1,2,3-triazol-1-yl)phenol]				10 to 100	< 10	101 to 250	
Cc1cn(-c2ccc(-c3ccc(N(C)[C@@H]4C[C@H]5CC[C@@H](C4)N5)nn3)c(O)c2)nn1 [compound 225, 2-(6-(((1R,3s,5S)-8-azabicyclo[3.2.1]octan-3-yl)(methyl)amino)pyridazin-3-yl)-5-(4-methyl-1H-1,2,3-triazol-1-yl)phenol]				10 to 100	10 to 100	10 to 100	
CN(c1ccc(-c2ccc(-c3c[nH]nn3)cc2O)nn1)[C@@H]1C[C@H]2CC[C@@H](C1)N2 [compound 226, 2-(6-(((1R,3s,5S)-8-azabicyclo[3.2.1]octan-3-yl)(methyl)amino)pyridazin-3-yl)-5-(1H-1,2,3-triazol-4-yl)phenol]				10 to 100	10 to 100	101 to 250	
CN(c1ccc(-c2ccc(-c3nnn[nH]3)cc2O)nn1)[C@@H]1C[C@H]2CC[C@@H](C1)N2 [compound 227, 2-(6-(((1R,3s,5S)-8-azabicyclo[3.2.1]octan-3-yl)(methyl)amino)pyridazin-3-yl)-5-(1H-tetrazol-5-yl)phenol]				> 1000	> 1000	> 1000	
Cc1cc(-c2ccc(-c3ccc(N(C)[C@@H]4C[C@H]5CC[C@@H](C4)N5)nn3)c(O)c2)on1 [compound 229, 2-(6-(((1R,3s,5S)-8-azabicyclo[3.2.1]octan-3-yl)(methyl)amino)pyridazin-3-yl)-5-(3-methylisoxazol-5-yl)phenol]				> 1000	> 1000	> 1000	
Cc1nccn1-c1ccc(-c2ccc(N(C)[C@@H]3C[C@H]4CC[C@@H](C3)N4)nn2)c(O)c1 [compound 230, 2-(6-(((1R,3s,5S)-8-azabicyclo[3.2.1]octan-3-yl)(methyl)amino)pyridazin-3-yl)-5-(2-methyl-1H-imidazol-1-yl)phenol]				501 to 1000	101 to 250	> 1000	
Cc1cn(-c2ccc(-c3ccc(N(C)[C@@H]4C[C@H]5CC[C@@H](C4)N5)nn3)c(O)c2)c(C)n1 [compound 231, 2-(6-(((1R,3s,5S)-8-azabicyclo[3.2.1]octan-3-yl)(methyl)amino)pyridazin-3-yl)-5-(2,4-dimethyl-1H-imidazol-1-yl)phenol]				501 to 1000	251 to 500	> 1000	
CN(c1ccc(-c2ccc(-c3nnc(C(F)(F)F)o3)cc2O)nn1)[C@@H]1C[C@H]2CC[C@@H](C1)N2 [compound 232, 2-(6-(((1R,3s,5S)-8-azabicyclo[3.2.1]octan-3-yl)(methyl)amino)pyridazin-3-yl)-5-(5-(trifluoromethyl)-1,3,4-oxadiazol-2-yl)phenol]				501 to 1000	101 to 250	> 1000	
